Reference: the NIST ThermoML archive (doi:10.1021/je301123j)
± gives the expanded uncertainty stated by the source.

How the values were obtained:
[1] = xn = mol fraction of the nth substance listed; conditions: x2 = 0; for surface tension liquid-gas: Ring tensiometer; for mass density / speed of sound / viscosity: 100 kPa, Liquid
[2] = for surface tension liquid-gas: Ring tensiometer; for mass density / speed of sound / viscosity: 100 kPa, Liquid

SMILES | surface tension liquid-gas ([1]; 293.15 K) [mN/m] | mass density ([1]; 293.15 K) [kg/m3] | speed of sound ([1]; 293.15 K) [m/s] | viscosity ([1]; 293.15 K) [mPa·s] | surface tension liquid-gas ([1]; 303.15 K) [mN/m] | surface tension liquid-gas ([2]; 293.15 K) [mN/m] | mass density ([2]; 293.15 K) [kg/m3] | speed of sound ([2]; 293.15 K) [m/s] | viscosity ([2]; 293.15 K) [mPa·s] | surface tension liquid-gas ([2]; 303.15 K) [mN/m] | mass density ([2]; 303.15 K) [kg/m3] | speed of sound ([2]; 303.15 K) [m/s] | viscosity ([2]; 303.15 K) [mPa·s] | surface tension liquid-gas ([2]; 313.15 K) [mN/m] | mass density ([2]; 313.15 K) [kg/m3] | speed of sound ([2]; 313.15 K) [m/s] | viscosity ([2]; 313.15 K) [mPa·s] | mass density ([2]; 323.15 K) [kg/m3] | speed of sound ([2]; 323.15 K) [m/s] | viscosity ([2]; 323.15 K) [mPa·s] | other results
NCCO [2-aminoethan-1-ol] + CCN1CCCC1=O | 49.7 ± 0.9 | 1015.93 ± 1.1 | 1734.4 ± 4 | 24.23 ± 0.24 | 47.8 ± 0.9 | – | – | – | – | – | – | – | – | – | – | – | – | – | – | – | mass density ([1]; 303.15 K): 1008.02 ± 1 kg/m3; speed of sound ([1]; 303.15 K): 1702.1 ± 4 m/s; viscosity ([1]; 303.15 K): 14.99 ± 0.15 mPa·s; surface tension liquid-gas ([1]; 313.15 K): 47.1 ± 0.9 mN/m; mass density ([1]; 313.15 K): 1000.06 ± 0.95 kg/m3; speed of sound ([1]; 313.15 K): 1670.1 ± 3.9 m/s; viscosity ([1]; 313.15 K): 9.776 ± 0.1 mPa·s; mass density ([1]; 323.15 K): 992.05 ± 1 kg/m3; speed of sound ([1]; 323.15 K): 1637.2 ± 3.9 m/s; viscosity ([1]; 323.15 K): 6.765 ± 0.076 mPa·s
NCCO [2-aminoethan-1-ol] | – | – | – | – | – | 49.7 ± 0.9 | 1015.93 ± 1.1 | 1734.4 ± 4 | 24.23 ± 0.24 | 47.8 ± 0.9 | 1008.02 ± 1 | 1702.1 ± 4 | 14.99 ± 0.15 | 47.1 ± 0.9 | 1000.06 ± 0.95 | 1670.1 ± 3.9 | 9.776 ± 0.1 | 992.05 ± 1 | 1637.2 ± 3.9 | 6.765 ± 0.076 | –
OCCNCCO [diethanolamine] | – | – | – | – | – | 47.4 ± 0.9 | 1096.45 ± 1.9 | 1739.2 ± 4 | 892.04 ± 87 | 46.6 ± 0.9 | 1090.02 ± 1.8 | 1711.3 ± 4 | 394.2 ± 28 | 46 ± 0.9 | 1083.51 ± 1.8 | 1685.9 ± 3.9 | 191.32 ± 8.8 | 1077.05 ± 1.7 | 1661.1 ± 3.9 | 102.72 ± 2.6 | –
OCCN(CCO)CCO [triethanolamine] + CCN1CCCC1=O | 46.3 ± 0.9 | 1123.51 ± 2.1 | 1626.9 ± 3.9 | 951.79 ± 95 | 45.6 ± 0.8 | – | – | – | – | – | – | – | – | – | – | – | – | – | – | – | mass density ([1]; 303.15 K): 1118 ± 2.1 kg/m3; speed of sound ([1]; 303.15 K): 1605.3 ± 3.8 m/s; viscosity ([1]; 303.15 K): 413.68 ± 30 mPa·s; surface tension liquid-gas ([1]; 313.15 K): 44.8 ± 0.8 mN/m; mass density ([1]; 313.15 K): 1112.34 ± 2 kg/m3; speed of sound ([1]; 313.15 K): 1587.8 ± 3.8 m/s; viscosity ([1]; 313.15 K): 204.57 ± 9.8 mPa·s; mass density ([1]; 323.15 K): 1106.7 ± 2 kg/m3; speed of sound ([1]; 323.15 K): 1571.9 ± 3.8 m/s; viscosity ([1]; 323.15 K): 111.34 ± 3.1 mPa·s
OCCNCCO [diethanolamine] + CCN1CCCC1=O | 47.4 ± 0.9 | 1096.45 ± 1.9 | 1739.2 ± 4 | 892.04 ± 87 | 46.6 ± 0.9 | – | – | – | – | – | – | – | – | – | – | – | – | – | – | – | mass density ([1]; 303.15 K): 1090.02 ± 1.8 kg/m3; speed of sound ([1]; 303.15 K): 1711.3 ± 4 m/s; viscosity ([1]; 303.15 K): 394.2 ± 28 mPa·s; surface tension liquid-gas ([1]; 313.15 K): 46 ± 0.9 mN/m; mass density ([1]; 313.15 K): 1083.51 ± 1.8 kg/m3; speed of sound ([1]; 313.15 K): 1685.9 ± 3.9 m/s; viscosity ([1]; 313.15 K): 191.32 ± 8.8 mPa·s; mass density ([1]; 323.15 K): 1077.05 ± 1.7 kg/m3; speed of sound ([1]; 323.15 K): 1661.1 ± 3.9 m/s; viscosity ([1]; 323.15 K): 102.72 ± 2.6 mPa·s
CCN1CCCC1=O [1-ethyl-2-pyrrolidinone] | – | – | – | – | – | 36.5 ± 0.8 | 997.91 ± 1.6 | 1513.2 ± 4.1 | 2.132 ± 0.032 | 35.2 ± 0.8 | 989.34 ± 1.6 | 1475 ± 4.1 | 1.777 ± 0.027 | 34.2 ± 0.8 | 980.76 ± 1.7 | 1437.6 ± 4.1 | 1.515 ± 0.023 | 972.16 ± 1.8 | 1400.6 ± 4 | 1.31 ± 0.02 | –
OCCN(CCO)CCO [triethanolamine] | – | – | – | – | – | 46.3 ± 0.9 | 1123.51 ± 2.1 | 1626.9 ± 3.9 | 951.79 ± 95 | 45.6 ± 0.8 | 1118 ± 2.1 | 1605.3 ± 3.8 | 413.68 ± 30 | 44.8 ± 0.8 | 1112.34 ± 2 | 1587.8 ± 3.8 | 204.57 ± 9.8 | 1106.7 ± 2 | 1571.9 ± 3.8 | 111.34 ± 3.1 | –
